Type in all cases: biochemical
Test [1] has as its target T1, TRKA (Homo sapiens, UniProt P04629).
T1 construct: purchased Carna 08-186
Put plainly: Determination of inhibitory activity against TRKA kinase (ADP-Glo Kinase Assay). Particulars: ATP 5 μM, Poly (4:1 Glu, Tyr) Peptide 0.03 mg/ml. How it is done: (§1) Assay: Determination of Inhibitory Activity Against TRKA/B/C Kinases
(§2) 1× volume of 5× kinase reaction buffer and 4× volume of water; 5 mM MgCl2; and 1 mM DTT.
(§3) • 1). Gradiently diluting a compound 4-fold in a dilution plate with DMSO, with a starting compound concentration of 1000 nM. • 2). Diluting the compound 50-fold into 1× kinase reaction buffer and shaking it on a shaker for 20 minutes. • 3). Formulating 2× kinase with 1× of enzyme reaction buffer. • 4). Adding 2 μl kinase (formulated in step 3) to each well of the reaction plate. • 5). Adding 1 μl of the compound diluted in buffer to each well, sealing the plate with a sealing membrane and centrifuging the plate at 1000 g for 30 seconds and leaving it at room temperature for 10 minutes. • 6). Formulating 4×ATP & sub mixture with 1× enzyme reaction buffer and adding 1 μl of 4×ATP & sub mixture to the reaction plate. • 7). Sealing the plate with a sealing membrane and centrifuging the plate at 1000 g for 30 seconds and allowing it to react at room temperature for 60 minutes. • 8). Transferring 4 μl of ADP-Glo to 384 reaction plate and centrifuging the plate at 1000 rpm/min for 1 min, and then incubating it at 25° C. for 40 min. • 9). Transferring 8 μl of Detection solution to 384 reaction plate and centrifuging the plate at 1000 rpm/min for 1 min and incubating it at 25° C. for 40 min. • 10) Reading the RLU (Relative luminescence unit) signal using a Biotek multifunctional plate reader. The signal intensity was used to characterize the activity degree of kinase.
(§4) The IC50 (half inhibition concentration) of a compound was obtained using the following non-linear fitting equation, wherein data analysis was performed using Graphpad 6.0 software.
(§5) Y=Bottom+(Top−Bottom)/(1+10^((Log IC50−X)*Hill Slope)) • X: log value of compound concentration; and Y: inhibition rate (% inhibition)
(§6) Data were exported from Biotek and analyzed manually. The ratios were converted to inhibition rates and IC50 was calculated by Prism GraphPad 6.0 from the inhibition rates. IC50 was calculated again by the ratios to verify accuracy of the results.
In general terms: ADP-Glo first removes unused ATP, then detects ADP through luciferase.

In test [2] the target is T2, TRKB (Homo sapiens, UniProt Q16620).
T2 construct: purchased SignalChem N17-11G
Put plainly: Determination of inhibitory activity against TRKB kinase (ADP-Glo Kinase Assay). The conditions noted are these: ATP 20 μM, Poly (4:1 Glu, Tyr) Peptide 0.03 mg/ml. The protocol: as §1, §2, §3, §4, §5, §6

For test [3], the target named is T3, TRKC (Homo sapiens, UniProt Q16288).
T3 construct: purchased Carna 08-196
Put plainly: Determination of inhibitory activity against TRKC kinase (ADP-Glo Kinase Assay). The conditions noted are these: ATP 5 μM, Poly (4:1 Glu, Tyr) Peptide 0.03 mg/ml. The protocol:
as §1, §2, §3, §4, §5, §6

For orientation: IC50 means the concentration at which inhibition is half-maximal. Low readings indicate higher potency, high ones lower potency.

T3 sequence (Q16288 32-839): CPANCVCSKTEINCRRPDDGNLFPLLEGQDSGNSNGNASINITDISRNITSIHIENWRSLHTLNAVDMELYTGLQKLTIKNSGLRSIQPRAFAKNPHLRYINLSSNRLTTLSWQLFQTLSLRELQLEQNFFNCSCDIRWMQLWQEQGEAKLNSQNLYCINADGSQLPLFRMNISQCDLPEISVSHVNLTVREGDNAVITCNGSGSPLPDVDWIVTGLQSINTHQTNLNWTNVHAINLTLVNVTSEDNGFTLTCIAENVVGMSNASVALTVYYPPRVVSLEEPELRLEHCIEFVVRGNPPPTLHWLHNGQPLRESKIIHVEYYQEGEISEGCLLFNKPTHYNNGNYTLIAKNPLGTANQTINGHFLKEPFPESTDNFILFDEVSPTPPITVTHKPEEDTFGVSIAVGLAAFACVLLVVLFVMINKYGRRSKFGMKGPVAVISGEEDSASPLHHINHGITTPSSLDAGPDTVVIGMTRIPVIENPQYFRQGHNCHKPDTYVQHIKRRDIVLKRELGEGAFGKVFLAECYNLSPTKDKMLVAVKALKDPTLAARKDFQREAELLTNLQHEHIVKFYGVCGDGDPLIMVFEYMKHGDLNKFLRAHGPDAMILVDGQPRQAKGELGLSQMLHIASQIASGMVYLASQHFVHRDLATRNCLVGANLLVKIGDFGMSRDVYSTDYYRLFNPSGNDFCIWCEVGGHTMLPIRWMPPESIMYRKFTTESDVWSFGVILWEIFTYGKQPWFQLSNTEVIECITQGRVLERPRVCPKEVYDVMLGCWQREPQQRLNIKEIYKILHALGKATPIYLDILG
T2 sequence (Q16620 32-822): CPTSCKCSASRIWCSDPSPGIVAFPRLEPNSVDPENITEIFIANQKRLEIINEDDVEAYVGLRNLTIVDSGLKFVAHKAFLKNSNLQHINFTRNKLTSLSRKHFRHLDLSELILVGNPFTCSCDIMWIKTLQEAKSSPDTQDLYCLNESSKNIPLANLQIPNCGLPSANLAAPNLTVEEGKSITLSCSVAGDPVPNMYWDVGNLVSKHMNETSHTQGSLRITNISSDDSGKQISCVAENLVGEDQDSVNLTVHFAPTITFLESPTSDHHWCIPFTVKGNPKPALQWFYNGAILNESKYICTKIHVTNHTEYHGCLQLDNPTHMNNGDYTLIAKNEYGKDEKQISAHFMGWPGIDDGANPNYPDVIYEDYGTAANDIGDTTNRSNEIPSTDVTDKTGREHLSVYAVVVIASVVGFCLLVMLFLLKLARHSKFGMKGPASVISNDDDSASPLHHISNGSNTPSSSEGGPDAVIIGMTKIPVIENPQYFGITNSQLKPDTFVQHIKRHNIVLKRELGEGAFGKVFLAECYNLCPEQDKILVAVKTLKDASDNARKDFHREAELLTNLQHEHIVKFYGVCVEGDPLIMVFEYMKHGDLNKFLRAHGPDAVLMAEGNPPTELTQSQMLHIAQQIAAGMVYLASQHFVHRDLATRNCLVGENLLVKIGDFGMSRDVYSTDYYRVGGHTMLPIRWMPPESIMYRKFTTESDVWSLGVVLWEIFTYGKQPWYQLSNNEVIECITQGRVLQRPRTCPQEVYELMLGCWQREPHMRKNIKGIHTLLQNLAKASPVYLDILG
T1 sequence (P04629 33-796): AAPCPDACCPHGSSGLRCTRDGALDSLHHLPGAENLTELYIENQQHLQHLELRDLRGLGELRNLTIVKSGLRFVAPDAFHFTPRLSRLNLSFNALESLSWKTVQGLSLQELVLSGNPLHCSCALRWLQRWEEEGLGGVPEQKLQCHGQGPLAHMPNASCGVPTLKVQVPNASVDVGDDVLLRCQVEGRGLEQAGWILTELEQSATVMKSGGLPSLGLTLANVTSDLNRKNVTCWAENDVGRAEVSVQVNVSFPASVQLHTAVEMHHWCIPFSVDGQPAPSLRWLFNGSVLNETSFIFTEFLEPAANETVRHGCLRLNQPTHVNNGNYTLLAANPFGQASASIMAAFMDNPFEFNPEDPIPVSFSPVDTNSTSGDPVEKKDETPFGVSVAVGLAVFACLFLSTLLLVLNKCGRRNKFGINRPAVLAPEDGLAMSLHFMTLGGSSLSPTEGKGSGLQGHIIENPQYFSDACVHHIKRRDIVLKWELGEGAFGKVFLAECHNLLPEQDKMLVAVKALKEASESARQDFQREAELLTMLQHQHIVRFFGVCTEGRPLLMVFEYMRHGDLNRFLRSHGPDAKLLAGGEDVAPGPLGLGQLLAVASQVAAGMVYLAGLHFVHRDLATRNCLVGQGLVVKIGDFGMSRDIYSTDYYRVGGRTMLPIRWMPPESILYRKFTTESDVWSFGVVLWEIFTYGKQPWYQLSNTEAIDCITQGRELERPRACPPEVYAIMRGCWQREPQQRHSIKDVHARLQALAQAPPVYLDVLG

As to `CC(Oc1ccc2[nH]nc(-c3nc4c([nH]3)CN(CC3CCCCN3)C4)c2c1)c1cc(F)cc(F)c1` (stereo not drawn) [Example 25, 5-(1-(3,5-Difluorophenyl)ethoxy)-3-(5-(piperidin-2-ylmethyl)-1,4,5,6-tetrahydropyrrolo[3,4-d]imidazol-2-yl)-1H-indazole], the IC50 in test [1] was 1.8 nM; in test [2] it was 6.8 nM; in test [3], 1.6 nM.
`CC(Oc1ccc2[nH]nc(-c3nc4c([nH]3)CN(CC3CN(C)C3)C4)c2c1)c1cc(F)cc(F)c1` (stereo not drawn) [Example 26, 5-(1-(3,5-Difluorophenyl)ethoxy)-3-(5-((1-methylazetidin-3-yl)methyl)-1,4,5,6-tetrahydropyrrolo[3,4-d]imidazol-2-yl)-1H-indazole]: the IC50 amounted to 2.8 nM in test [1], 5.5 nM in test [2] and 2 nM in test [3].
Consider `CC(Oc1ccc2[nH]nc(-c3nc4c([nH]3)CN(CC3CCN(C5CCC5)CC3)C4)c2c1)c1cc(F)cc(F)c1` (stereo not drawn) [Example 27, 3-(5-((1-Cyclobutylpiperidin-4-yl)methyl)-1,4,5,6-tetrahydropyrrolo[3,4-d]imidazol-2-yl)-5-(1-(3,5-difluorophenyl)ethoxy)-1H-indazole], for which the IC50 came to 0.42 nM in test [1], 3.1 nM in test [2] and 3.5 nM in test [3].
On to `CC(Oc1ccc2[nH]nc(-c3nc4c([nH]3)CN(CC3(C)CCN(C(C)C)CC3)C4)c2c1)c1cc(F)cc(F)c1` (stereo not drawn) [Example 28], for which the IC50 worked out at 0.53 nM in test [1], 3.9 nM in test [2] and 1.4 nM in test [3].
Regarding `CC(Oc1ccc2[nH]nc(-c3nc4c([nH]3)CN(C(=O)N3CCN(C)CC3)C4)c2c1)c1cc(F)cc(F)c1` (stereo not drawn) [Example 29, (2-(5-(1-(3,5-Difluorophenyl)ethoxy)-1H-indazol-3-yl)-4,6-dihydropyrrolo[3,4-d]imidazol-5(1H)-yl)(4-methylpiperazin-1-yl)ketone], the figures for the IC50 in test [1], in test [2] and in test [3] were 1.5 nM, 2.2 nM and 1.8 nM, respectively.
For `CC(Oc1ccc2[nH]nc(-c3nc4c([nH]3)CN(C(=O)OC3CCN(C)C3)C4)c2c1)c1cc(F)cc(F)c1` (stereo not drawn) [Example 30, 1-Methylpyrrolidin-3-yl 2-(5-(1-(3,5-difluorophenyl)ethoxy)-1H-indazol-3-yl)-4,6-dihydropyrrolo[3,4-d]imidazole-5(1H)-carboxylate], the IC50 in test [1] was determined as 0.94 nM; in test [2], 2 nM; in test [3] it was 1.2 nM.
Consider `CC(Oc1ccc2[nH]nc(-c3nc4c([nH]3)CN(C(=O)OC3CN(C)C3)C4)c2c1)c1cc(F)cc(F)c1` (stereo not drawn) [Example 31, 1-Methylazetidin-3-yl 2-(5-(1-(3,5-difluorophenyl)ethoxy)-1H-indazol-3-yl)-4,6-dihydropyrrolo[3,4-d]imidazole-5(1H)-carboxylate], for which the figures for the IC50 in test [1], in test [2] and in test [3] were 1.1 nM, 4.3 nM and 1.1 nM, respectively.
In the case of `C[C@@H](Oc1ccc2[nH]nc(-c3nc4c([nH]3)CN(CC3CCN(C)CC3)C4)c2c1)c1cc(F)cc(F)c1` [Example 32], the IC50 in test [1] was 0.23 nM; in test [2], 0.63 nM; in test [3] it was 0.43 nM.
In the same order, the values of `CC(Oc1ccc2[nH]nc(-c3nc4c([nH]3)CN(C(=O)OC3CCCN(C)C3)C4)c2c1)c1cc(F)cc(F)c1` (stereo not drawn) [Example 33, 1-Methylpiperidin-3-yl 2-(5-(1-(3,5-difluorophenyl)ethoxy)-1H-indazol-3-yl)-4,6-dihydropyrrolo[3,4-d]imidazole-5(1H)-carboxylate] are 0.46 nM, 4.1 nM and 1.2 nM.
Take `CC(Oc1ccc2[nH]nc(-c3nc4c([nH]3)CN(C(C)C3CN(C)C3)C4)c2c1)c1cc(F)cc(F)c1` (stereo not drawn) [Example 34, 5-(1-(3,5-Difluorophenyl)ethoxy)-3-(5-(1-(1-methylazetidin-3-yl)ethyl)-1,4,5,6-tetrahydropyrrolo[3,4-d]imidazol-2-yl)-1H-indazole]: the values for the concentration for half-maximal inhibition (IC50) in test [1], in test [2] and in test [3] were 4.6 nM, 2 nM and 4.5 nM, respectively.
Take `CCN1CCC(N2Cc3nc(-c4n[nH]c5ccc(OC(C)c6cc(F)cc(F)c6)cc45)[nH]c3C2)CC1` (stereo not drawn) [Example 38, 5-(1-(3,5-Difluorophenyl)ethoxy)-3-(5-(1-ethylpiperidin-4-yl)-1,4,5,6-tetrahydropyrrolo[3,4-d]imidazol-2-yl)-1H indazole]: the IC50 in test [1] is 4.1 nM; in test [2] it was 1.9 nM; in test [3], 3.6 nM.
Consider `CC(Oc1ccc2[nH]nc(-c3nc4c([nH]3)CN(C3CC5(C3)CN(C)C5)C4)c2c1)c1cc(F)cc(F)c1` (stereo not drawn) [Example 39, 5-(1-(3,5-Difluorophenyl)ethoxy)-3-(5-(2-methyl-2-azaspiro[3.3]heptan-6-yl)-1,4,5,6-tetrahydropyrrolo[3,4-d]imidazol-2-yl)-1H-indazole], for which the figures for the IC50 in test [1], in test [2] and in test [3] were 6.8 nM, 1 nM and 2.3 nM, respectively.
Regarding `CC(Oc1ccc2[nH]nc(-c3nc4c([nH]3)CN(C3CCN(C)C3)C4)c2c1)c1cc(F)cc(F)c1` (stereo not drawn) [Example 41, 5-(1-(3,5-Difluorophenyl)ethoxy)-3-(5-(1-methylpyrrolidin-3-yl)-1,4,5,6-tetrahydropyrrolo[3,4-d]imidazol-2-yl)-1H indazole], the IC50 came to 7.4 nM in test [1], 3 nM in test [2] and 7.7 nM in test [3].
In the same order, the values of `CC(Oc1ccc2[nH]nc(-c3nc4c([nH]3)CN(CC3CCCN3)C4)c2c1)c1cc(F)cc(F)c1` (stereo not drawn) [Example 42, 5-(1-(3,5-Difluorophenyl)ethoxy)-3-(5-(pyrrolidin-2-ylmethyl)-1,4,5,6-tetrahydropyrrolo[3,4-d]imidazol-2-yl)-1H-indazole] are 1 nM, 1.1 nM and 1.5 nM.
Consider `CCN1CCCC(N2Cc3nc(-c4n[nH]c5ccc(OC(C)c6cc(F)cc(F)c6)cc45)[nH]c3C2)C1` (stereo not drawn) [Example 43, 5-(1-(3,5-Difluorophenyl)ethoxy)-3-(5-(1-ethylpiperidin-3-yl)-1,4,5,6-tetrahydropyrrolo[3,4-d]imidazol-2-yl)-1H indazole], for which the IC50 in test [1] was determined as 1.9 nM; in test [2] it was 1.4 nM; in test [3], 2.9 nM.
As for `CC(Oc1ccc2[nH]nc(-c3nc4c([nH]3)CN(C3CC(N(C)C)C3)C4)c2c1)c1cc(F)cc(F)c1` (stereo not drawn) [Example 44], the IC50 turned out to be 1.4 nM in test [1], 0.64 nM in test [2] and 1.8 nM in test [3].
For `CC(Oc1ccc2[nH]nc(-c3nc4c([nH]3)CN(C3CCCC(N(C)C)C3)C4)c2c1)c1cc(F)cc(F)c1` (stereo not drawn) [Example 45, 3-(2-(5-(1-(3,5-difluorophenyl)ethoxy)-1H-indazol-3-yl)-4,6-dihydropyrrolo[3,4-d]imidazol-5(1H)-yl)-N,N-dimethyl cyclohexan-1-amine], in that order: 1.6 nM, 0.83 nM and 1.7 nM.
For `CC(Oc1ccc2[nH]nc(-c3nc4c([nH]3)CN(C3CCC(N(C)C)C3)C4)c2c1)c1cc(F)cc(F)c1` (stereo not drawn) [Example 46, 3-(2-(5-(1-(3,5-Difluorophenyl)ethoxy)-1H-indazol-3-yl)-4,6-dihydropyrrolo[3,4-d]imidazol-5(1H)-yl)-N,N-dimethyl cyclopentan-1-amine], in that order: 10.6 nM, 1.4 nM and 2.9 nM.
In the same order, the values of `CC(Oc1ccc2[nH]nc(-c3nc4c([nH]3)CN(CC3CCN(C)CC3)C4)c2c1)c1cc(F)cc(C#N)c1` (stereo not drawn) [Example 47] are 14.2 nM, 8.9 nM and 8.6 nM.
On to `CCC(Oc1ccc2[nH]nc(-c3nc4c([nH]3)CN(CC3CCN(C)CC3)C4)c2c1)c1cc(F)cc(F)c1` (stereo not drawn) [Example 48, 5-(1-(3,5-Difluorophenyl)propoxy)-3-(5-((1-methylpiperidin-4-yl)methyl)-1,4,5,6-tetrahydropyrrolo[3,4-d]imidazol-2-yl)-1 H-indazole], for which the IC50 in test [1] is 4.5 nM; in test [2], 4.2 nM; in test [3], 6.1 nM.
